According to patent US20250057928A1, “VACCINE COMPOSITION FOR INDUCING ANTI-IL-23 ANTIBODY” (OSAKA UNIVERSITY, priority 2021, published 2025):
Where no end group is shown, it is not given here.

How the values were obtained:
[1] = system: splenocytes; assay: ELISPOT assay for T cell activation (IFN-γ, IL-4) in splenocytes of administered mice; assay type: cell-based, mouse; conditions: splenocytes 7 weeks after first administration, stimulated with 10 μg/mL AJP001 alone or 10 μg/mL AJP001 conjugated peptide
Protocol: In addition, ELISPOT assay was performed to evaluate T cell activation. AJP001 conjugated peptide (SEQ ID NO: 2) or physiological saline was administered three times at two-week intervals to BALB/c mice (female, 6-week-old, N=3-4), and the spleen was collected 7 weeks after the first administration. The collected spleen was triturated using a syringe barrel and a cell strainer. This was washed with and suspended in HBSS (−), erythrocytes were removed using ACK Buffer (Thermo fisher scientific), and splenocytes were isolated. Using Mouse IFN-γ ELISpot assay kit and Mouse IL-4 ELISpot assay kit (R&D systems), the cells were prepared to 2.5×10^6 cells/mL with 10% FBS/1% penicillin/streptomycin/4 ng/mL rmIL-2-containing RPMI1640 medium (culture medium), and seeded at 100 μL/well on the 96-well plate of which each capture antibody was immobilized. Splenocytes were stimulated by adding (1) medium alone, (2) 10 μg/mL T cell antigen AJP001 (SEQ ID NO: 38) alone, (3) 10 μg/mL AJP001 conjugated peptide (SEQ ID NO: 2), or (4) 100 ng/mL PMA/ionomycin (PMA/IM, Sigma) to each well. Stimulation was performed for 2 days in a […]. Then, a detection antibody was added and, after washing, a colorimetric reaction was performed. The stained cells were measured with a microscope. The number of IFN-γ and IL-4 positive cells was calculated as the number of cells per 10^6 cell number (SFC/10^6 cells). In FIG. 2, “*” means significant (P<0.05).
In addition, AJP001 conjugated peptide (SEQ ID NO: 6) or physiological saline was administered three times at two-week intervals to BALB/c mouse (female, 6-week-old, N=3-4), and the spleen was collected 7 weeks after the first administration. The collected spleen was subjected to ELISPOT assay using Mouse IFN-γ ELISpot assay kit and Mouse IL-4 ELISpot assay kit (R&D systems).

[2] = system: epitope peptide; assay: Antibody titer (GMT) of serum of mice administered AJP001 conjugated peptide, ELISA; assay type: in vivo, mouse; conditions: BALB/c mice, no adjuvant; for antibody titer (GMT) over time: 1 mg/body intradermal 3 times at two-week intervals, blood every 2 weeks until 8 weeks
Protocol: AJP001 conjugated peptide having one of the B cell epitope sequences of SEQ ID NOs: 1-5 was dissolved in physiological saline and intradermally administered twice to BALB/c mice (female, 6-week-old, N=5-6) at 0.5 mg/body at 2-week intervals. Blood was collected before administration and 5 weeks after the initial administration, and the antibody titer against each AJP001 conjugated peptide and the binding ability to recombinant mouse IL-23 protein (rmIL-23) were measured by the ELISA method. Specifically, a 96-well plate immobilized with an epitope peptide dissolved at 10 μg/mL in carbonate buffer was blocked with 5% skim milk/PBS, and then serum serially diluted with 5% skim milk/PBS was added, and the mixture was left standing at 4° C. overnight. After washing the wells with PBS-T, HRP-labeled anti-mouse IgG antibody (GE Healthcare) diluted with 5% skim milk/PBS was added and the mixture was shaken at room temperature for 3 hr. After washing the wells with PBS-T, TMB solution (SIGMA) was added, the wells were allowed to stand for 30 min in the dark, the reaction was stopped by adding 0.5M H2SO4, and the absorbance at 450 nm was measured using a plate reader. The serum dilution rate that gave 1/2 (OD=1.75) of the maximum absorbance was defined as the antibody titer, and the geometric mean titer: GMT was calculated from the individual values. Binding to IL-23 protein was measured by the ELISA method in the same manner as the antibody titer, using rmIL-23 (Antibodies-online GmbH) as the solid-phased antigen and goat serum for blocking.
AJP001 conjugated peptide (SEQ ID NO: 2) was dissolved in physiological saline and intradermally administered to BALB/c mice (female, 6-week-old, N=6) at 1 mg/body 3 times at two-week intervals, and blood was collected every 2 weeks until 8 weeks. The antibody titer (GMT) of all the collected sera and the binding ability to rmIL-23 of the serum at the time point of 6 weeks were measured by the ELISA method (same method as in Example 1). The antibody titer and the binding of the induced antibody to rmIL-23 at each time point are shown in FIGS. 2 (a) and (b), respectively.
AJP001 conjugated peptide (SEQ ID NOs: 6-37) was dissolved in physiological saline, mixed with an equal amount of 2% Alhydrogel (invivogen), and this was intradermally administered to BALB/c mice (female, 6-week-old, N=5-6) at 0.5 mg/body 3 times at two-week intervals. Blood was collected before administration and at the time point of 6 weeks after initial administration, and the antibody titer (GMT) to each epitope sequence and binding ability to recombinant human IL-23 protein (rhIL-23) (Peprotech) were measured by the ELISA method (same method as in Example 1). The binding to rhIL-23 was evaluated by a binding ratio to normal serum by calculating the ratio of the absorbance of a well added with normal mouse serum to the absorbance of a well added with antiserum derived from a mouse administered with each AJP001 conjugated peptide (SEQ ID NOs: 6-37). In addition, the neutralization activity of mouse antiserum was evaluated using an action on IL-17 production in rhIL-23 stimulated mouse splenocyte as an index. The spleen of normal BALB/c mouse (female, 5-week-old, N=3) was triturated using a syringe barrel and a cell strainer and washed with and suspended in HBSS (−). Erythrocytes were then removed using ACK Buffer (Thermo fisher scientific), and splenocytes were isolated. The splenocytes were prepared to 2.5×10^6 cells/mL with 10% FBS/1% penicillin/streptomycin/4 ng/mL rmIL-2-containing RPMI1640 medium (culture medium), and seeded in a 96 well plate at 100 μl/well. The antiserum (final concentration 15-fold) of the mice administered with each AJP001 conjugated peptide and rhIL-23 (final concentration 10 ng/ml) were added to the culture medium, reacted at 37° C. for 2 hr, added at 100 μL/well to a 96-well plate seeded with splenocytes, and cultured for 3 days in a 37° C./5% CO2 incubator. […]

| Substance | number of IFN-γ positive cells [1] | number of IL-4 positive cells [1] | antibody titer (GMT) over time [2] | antibody titer ([2]; 0.5 mg/body intradermal twice at 2-week intervals, 5 weeks after initial administration) |
| --- | --- | --- | --- | --- |
| SEQ ID NO 6: AJP001-Ahx-B cell epitope peptide conjugate; epitope SPSQPWQR (human 151-158) (not fully specified (N-terminus); listed as Homo sapiens) | increase | increase | increased from the 2nd week and persisted until the 8th week | – |
| SEQ ID NO 2: AJP001-Ahx-B cell epitope peptide conjugate; epitope SSSQQWQR (mouse 152-159) (not fully specified (N-terminus); listed as Mus musculus) | increase | increase | increased from the 2nd week and persisted until the 8th week | significant increase |
